Values quoted from earlier work as cited in patent publication US20040259949A1, “Method” (priority 2001, published 2004).

How the values were obtained:
[1] = tested on: normal human fibroblasts
[2] = mice
[3] = rat model

NCC(=O)CCC(=O)O [5-ALA, 5-amino-4-oxo-pentanoic acid]
effect of PDT on viability of normal human fibroblasts [1]: no effect on viability of normal human fibroblasts | effect of PDT on healing of colonic anastomosis [2]: no significant impairment in healing of colonic anastomosis

benzoporphyrin derivative monoacid ring A [BDP-MA]
influence of PDT on skin wound healing [3]: did not influence skin wound healing
